pIC50: −log10 of the molar value. Structures can show the parent of a compound that is named as a salt.
Experiments:
AXL = molecular target: T1, AXL (Homo sapiens, UniProt P30530); assay: AXL autophosphorylation ELISA in A-172 cells; assay type: cell-based; settings: Table 3 Cellular Activities, Gas6-stimulated, phospho-AXL ELISA
T1 construct: endogenous in cells; host or cells: A-172 glioblastoma cells (ATCC #CRL-1620)
T1 sequence (P30530 26-894): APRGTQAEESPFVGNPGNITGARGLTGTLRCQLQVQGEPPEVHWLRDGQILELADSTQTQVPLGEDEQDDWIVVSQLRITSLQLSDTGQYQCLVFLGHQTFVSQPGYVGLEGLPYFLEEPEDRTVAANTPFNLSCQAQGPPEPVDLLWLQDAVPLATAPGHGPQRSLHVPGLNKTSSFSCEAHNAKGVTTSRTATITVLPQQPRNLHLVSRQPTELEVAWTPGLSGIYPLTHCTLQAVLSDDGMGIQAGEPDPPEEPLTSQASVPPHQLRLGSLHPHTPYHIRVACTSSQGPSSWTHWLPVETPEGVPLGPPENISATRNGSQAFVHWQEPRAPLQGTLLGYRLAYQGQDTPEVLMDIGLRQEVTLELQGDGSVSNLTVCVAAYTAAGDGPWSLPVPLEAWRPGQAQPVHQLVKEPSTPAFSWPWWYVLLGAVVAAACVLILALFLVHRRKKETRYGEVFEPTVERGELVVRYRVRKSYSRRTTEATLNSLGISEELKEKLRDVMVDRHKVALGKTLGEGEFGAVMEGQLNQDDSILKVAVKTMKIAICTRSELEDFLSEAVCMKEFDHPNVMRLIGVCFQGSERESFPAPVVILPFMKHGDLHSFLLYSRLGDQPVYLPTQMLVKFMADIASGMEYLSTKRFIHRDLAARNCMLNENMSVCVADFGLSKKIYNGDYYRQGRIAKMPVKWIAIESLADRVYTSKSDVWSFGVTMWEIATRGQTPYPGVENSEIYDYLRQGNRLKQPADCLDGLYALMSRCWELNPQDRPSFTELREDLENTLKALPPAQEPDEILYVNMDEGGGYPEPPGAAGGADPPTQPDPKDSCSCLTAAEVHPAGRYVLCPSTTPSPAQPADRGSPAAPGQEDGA
In short: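 Phospho-AXL in lysates measured by ELISA after Gas6 stimulation (1 μg/mL, 15 min) of A-172 cells pre-incubated 1 h with an 8-point compound dilution series in 0.3% DMSO after 24 h serum starvation. IC50 by 4-parameter logistic fit, with DMSO-treated and reference-inhibitor wells as 100% and 0% activity.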

KDR = KDR (Homo sapiens, UniProt P35968); assay: KDR autophosphorylation ELISA in HUVEC cells; assay type: cell-based; design: endogenous in cells; host or cells: HUVEC (Lonza #C2519A); settings: Table 3 Cellular Activities, VEGF165-stimulated, phospho-KDR ELISA
Chain of KDR (P35968 20-1356): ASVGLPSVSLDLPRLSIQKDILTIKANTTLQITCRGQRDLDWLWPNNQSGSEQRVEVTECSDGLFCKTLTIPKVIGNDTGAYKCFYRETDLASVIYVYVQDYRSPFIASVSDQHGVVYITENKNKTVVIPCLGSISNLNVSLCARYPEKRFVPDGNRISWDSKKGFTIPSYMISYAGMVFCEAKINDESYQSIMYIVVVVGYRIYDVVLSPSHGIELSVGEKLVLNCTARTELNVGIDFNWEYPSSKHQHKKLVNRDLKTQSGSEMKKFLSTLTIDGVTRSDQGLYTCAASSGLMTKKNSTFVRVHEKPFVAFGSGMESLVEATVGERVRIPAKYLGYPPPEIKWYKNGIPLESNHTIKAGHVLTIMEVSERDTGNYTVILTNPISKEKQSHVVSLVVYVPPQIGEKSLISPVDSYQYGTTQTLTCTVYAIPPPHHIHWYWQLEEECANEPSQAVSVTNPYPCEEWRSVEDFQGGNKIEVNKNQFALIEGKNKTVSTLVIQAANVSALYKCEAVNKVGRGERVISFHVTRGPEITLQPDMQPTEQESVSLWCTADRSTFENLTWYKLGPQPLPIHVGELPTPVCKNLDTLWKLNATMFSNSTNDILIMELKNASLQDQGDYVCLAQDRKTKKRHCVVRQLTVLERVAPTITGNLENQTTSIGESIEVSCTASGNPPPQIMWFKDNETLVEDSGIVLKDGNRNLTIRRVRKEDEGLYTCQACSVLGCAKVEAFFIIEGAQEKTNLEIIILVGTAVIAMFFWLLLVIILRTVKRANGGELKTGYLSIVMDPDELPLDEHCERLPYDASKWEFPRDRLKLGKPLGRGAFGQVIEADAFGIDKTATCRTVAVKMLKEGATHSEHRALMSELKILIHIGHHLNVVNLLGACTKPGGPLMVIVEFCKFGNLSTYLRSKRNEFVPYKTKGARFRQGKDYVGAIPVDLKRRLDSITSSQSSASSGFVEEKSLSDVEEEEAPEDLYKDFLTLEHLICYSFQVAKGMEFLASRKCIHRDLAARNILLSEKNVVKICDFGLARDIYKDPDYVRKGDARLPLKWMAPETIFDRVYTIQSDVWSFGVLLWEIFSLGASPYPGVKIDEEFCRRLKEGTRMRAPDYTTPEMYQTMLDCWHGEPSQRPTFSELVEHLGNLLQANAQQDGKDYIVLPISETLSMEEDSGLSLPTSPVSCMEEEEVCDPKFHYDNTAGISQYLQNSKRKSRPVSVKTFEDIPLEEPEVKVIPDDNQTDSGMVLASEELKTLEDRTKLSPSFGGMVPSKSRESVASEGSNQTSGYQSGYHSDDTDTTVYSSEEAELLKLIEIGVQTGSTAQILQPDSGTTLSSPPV
In short: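 HUVECs grown 24 h at 37 °C, then serum-starved 24 h, were preincubated 1 h with an 8-point compound series (0.3% DMSO) and stimulated with 100 ng/mL human VEGF165 for 5 min. Phospho-KDR in lysates was measured by sandwich ELISA against a phospho-KDR standard; IC50 from 4-parameter logistic fit.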

Row | SMILES | pIC50 (AXL) | pIC50 (KDR)
1 | COc1cc2nccc(Oc3ccc(NC(=O)c4cc(C#N)c(C)n(-c5ccc(F)cn5)c4=O)cc3F)c2nc1OC [Compound 56, 5-Cyano-N-[4-[(6,7-dimethoxy-1,5-naphthyridin-4-yl)oxy]-3-fluorophenyl]-1-(5-fluoropyridin-2-yl)-6-methyl-2-oxopyridine-3-carboxamide] | ≥ 7.00 | 6.00 to 6.52
2 | COc1cc2nccc(Oc3ccc(NC(=O)c4cnc(C)c(-c5cccs5)c4O)cc3)c2nc1OC [Compound 256, N-[4-[(6,7-Dimethoxy-1,5-naphthyridin-4-yl)oxy]phenyl]-4-hydroxy-6-methyl-5-thiophen-2-ylpyridine-3-carboxamide] | ≥ 7.00 | ≥ 7.00
3 | COc1cc2nccc(Oc3ccc(NC(=O)c4c(C)nc(C)c(-c5ccc(F)cn5)c4O)cc3F)c2nc1OC [Compound 218, N-[4-[(6,7-Dimethoxy-1,5-naphthyridin-4-yl)oxy]-3-fluorophenyl]-5-(5-fluoropyridin-2-yl)-4-hydroxy-2,6-dimethylpyridine-3-carboxamide] | ≥ 7.00 | ≥ 7.00
4 | COc1cc2nccc(Oc3ccc(NC(=O)c4c5n(cc(-c6ccc(C)s6)c4=O)CCOC5)cc3F)c2nc1OC [Compound 304, N-[4-[(6,7-Dimethoxy-1,5-naphthyridin-4-yl)oxy]-3-fluorophenyl]-7-(5-methylthiophen-2-yl)-8-oxo-3,4-dihydro-1H-pyrido[2,1-c][1,4]oxazine-9-carboxamide] | ≥ 7.00 | 6.00 to 6.52
5 | COc1cc2nccc(Oc3ccc(NC(=O)c4cccn(-c5cc[n+]([O-])cc5)c4=O)cc3F)c2nc1OC [Compound 247, N-[4-[(6,7-Dimethoxy-1,5-naphthyridin-4-yl)oxy]-3-fluorophenyl]-1-(1-oxidopyridin-1-ium-4-yl)-2-oxopyridine-3-carboxamide hydrochloride] | 6.00 to 6.52 | 6.52 to 7.00
6 | COc1cc2nccc(Oc3ccc(NC(=O)c4cc(C(C)=O)c(C)n(-c5ccoc5)c4=O)cc3F)c2nc1OC [Compound 235, 5-Acetyl-N-[4-[(6,7-dimethoxy-1,5-naphthyridin-4-yl)oxy]-3-fluorophenyl]-1-(furan-3-yl)-6-methyl-2-oxopyridine-3-carboxamide] | ≥ 7.00 | 6.00 to 6.52
7 | COc1cnc2c(Oc3ccc(NC(=O)c4cc(C(C)=O)c(C)n(-c5ccco5)c4=O)cc3F)ccnc2c1 [Compound 238, 5-Acetyl-N-[3-fluoro-4-[(7-methoxy-1,5-naphthyridin-4-yl)oxy]phenyl]-1-(furan-2-yl)-6-methyl-2-oxopyridine-3-carboxamide] | 6.52 to 7.00 | 6.00 to 6.52
8 | COc1cc2nccc(Oc3ccc(NC(=O)c4ccc(C)n(-c5cc[n+]([O-])cc5)c4=O)cc3F)c2nc1OC [Compound 231, N-[4-[(6,7-Dimethoxy-1,5-naphthyridin-4-yl)oxy]-3-fluorophenyl]-6-methyl-1-(1-oxidopyridin-1-ium-4-yl)-2-oxopyridine-3-carboxamide] | ≥ 7.00 | 6.52 to 7.00
9 | COc1cnc2c(Oc3ccc(NC(=O)c4cn(CCF)c(C)c(-c5cc(C)cs5)c4=O)cc3F)ccnc2c1 [Compound 328, 1-(2-Fluoroethyl)-N-[3-fluoro-4-[(7-methoxy-1,5-naphthyridin-4-yl)oxy]phenyl]-6-methyl-5-(4-methylthiophen-2-yl)-4-oxopyridine-3-carboxamide] | ≥ 7.00 | 6.00 to 6.52
10 | COc1cc2nccc(Oc3ccc(NC(=O)c4cccn(-c5ccc(F)cn5)c4=O)cc3F)c2nc1OC [Compound 42, N-[4-[(6,7-Dimethoxy-1,5-naphthyridin-4-yl)oxy]-3-fluorophenyl]-1-(5-fluoropyridin-2-yl)-2-oxopyridine-3-carboxamide] | ≥ 7.00 | ≥ 7.00
11 | COc1cc2nccc(Oc3ccc(NC(=O)c4c5n(cc(-c6cccs6)c4=O)CCOC5)cc3)c2nc1OC [Compound 299, N-[4-[(6,7-Dimethoxy-1,5-naphthyridin-4-yl)oxy]phenyl]-8-oxo-7-thiophen-2-yl-3,4-dihydro-1H-pyrido[2,1-c][1,4]oxazine-9-carboxamide] | ≥ 7.00 | 6.00 to 6.52

More lines, now with the values ahead:

Row | pIC50 (AXL) | pIC50 (KDR) | SMILES
12 | ≥ 7.00 | ≥ 7.00 | COc1cnc2c(Oc3ccc(NC(=O)c4c(C)ncc(-c5ccccn5)c4O)cc3F)ccnc2c1 [Compound 70, N-[3-Fluoro-4-[(7-methoxy-1,5-naphthyridin-4-yl)oxy]phenyl]-4-hydroxy-2-methyl-5-pyridin-2-ylpyridine-3-carboxamide]
13 | ≥ 7.00 | 6.00 to 6.52 | COc1cc2nccc(Oc3ccc(NC(=O)c4c(C)n(C)c(C)c(-c5cc6ccccc6o5)c4=O)cc3F)c2nc1OC [Compound 261, 5-(1-Benzofuran-2-yl)-N-[4-[(6,7-dimethoxy-1,5-naphthyridin-4-yl)oxy]-3-fluorophenyl]-1,2,6-trimethyl-4-oxopyridine-3-carboxamide]
14 | ≥ 7.00 | 6.00 to 6.52 | COc1cc2nccc(Oc3ccc(NC(=O)c4cc(C(C)=O)c(C)n(-c5ccco5)c4=O)cc3)c2nc1OC [Compound 237, 5-Acetyl-N-[4-[(6,7-dimethoxy-1,5-naphthyridin-4-yl)oxy]phenyl]-1-(furan-2-yl)-6-methyl-2-oxopyridine-3-carboxamide]
15 | ≥ 7.00 | 6.00 to 6.52 | COc1cc2nccc(Oc3ccc(NC(=O)c4c5n(cc(-c6cc(C)cs6)c4=O)CCOC5)cc3)c2nc1OC [Compound 303, N-[4-[(6,7-Dimethoxy-1,5-naphthyridin-4-yl)oxy]phenyl]-7-(4-methylthiophen-2-yl)-8-oxo-3,4-dihydro-1H-pyrido[2,1-c][1,4]oxazine-9-carboxamide]
16 | ≥ 7.00 | 6.00 to 6.52 | COCCOc1cc2nccc(Oc3ccc(NC(=O)c4c(C)n(C)c(C)c(-c5cc6ccccc6o5)c4=O)cc3F)c2nc1OC [Compound 263, 5-(1-Benzofuran-2-yl)-N-[3-fluoro-4-[[6-methoxy-7-(2-methoxyethoxy)-1,5-naphthyridin-4-yl]oxy]phenyl]-1,2,6-trimethyl-4-oxopyridine-3-carboxamide]
17 | ≥ 7.00 | ≥ 7.00 | COc1cc2nccc(Oc3ccc(NC(=O)c4c5n(cc(-c6cc(C)cs6)c4=O)CCOC5)cc3F)c2nc1OC [Compound 302, N-[4-[(6,7-Dimethoxy-1,5-naphthyridin-4-yl)oxy]-3-fluorophenyl]-7-(4-methylthiophen-2-yl)-8-oxo-3,4-dihydro-1H-pyrido[2,1-c][1,4]oxazine-9-carboxamide]
18 | ≥ 7.00 | ≥ 7.00 | COc1cc2nccc(Oc3ccc(NC(=O)c4ccc(C)n(-c5ccnc(F)c5)c4=O)cc3F)c2nc1OC [Compound 233, N-[4-[(6,7-Dimethoxy-1,5-naphthyridin-4-yl)oxy]-3-fluorophenyl]-1-(2-fluoropyridin-4-yl)-6-methyl-2-oxopyridine-3-carboxamide]
19 | ≥ 7.00 | 6.00 to 6.52 | COc1cnc2c(Oc3ccc(NC(=O)c4c(C)n(C)cc(-c5ccc(F)cn5)c4=O)cc3F)ccnc2c1 [Compound 73, N-[3-Fluoro-4-[(7-methoxy-1,5-naphthyridin-4-yl)oxy]phenyl]-5-(5-fluoropyridin-2-yl)-1,2-dimethyl-4-oxopyridine-3-carboxamide]
20 | ≥ 7.00 | ≥ 7.00 | COc1ccc2nccc(Oc3ccc(NC(=O)c4ccc(C)n(-c5ncc(F)cc5C)c4=O)cc3F)c2n1 [Compound 53, N-[3-Fluoro-4-[(6-methoxy-1,5-naphthyridin-4-yl)oxy]phenyl]-1-(5-fluoro-3-methylpyridin-2-yl)-6-methyl-2-oxopyridine-3-carboxamide]
21 | ≥ 7.00 | 6.52 to 7.00 | COc1cc2nccc(Oc3ccc(NC(=O)c4cn(CCF)c(C)c(-c5cccs5)c4=O)cc3F)c2nc1OC [Compound 327, N-[4-[(6,7-Dimethoxy-1,5-naphthyridin-4-yl)oxy]-3-fluorophenyl]-1-(2-fluoroethyl)-6-methyl-4-oxo-5-thiophen-2-ylpyridine-3-carboxamide]
22 | ≥ 7.00 | 6.52 to 7.00 | COc1cc2nccc(Oc3ccc(NC(=O)c4cc(C(C)=O)c(C)n(-c5ccc(F)cn5)c4=O)cc3F)c2nc1OC [Compound 59, 5-Acetyl-N-[4-[(6,7-dimethoxy-1,5-naphthyridin-4-yl)oxy]-3-fluorophenyl]-1-(5-fluoropyridin-2-yl)-6-methyl-2-oxopyridine-3-carboxamide]

Source: patent US20230151003A1, “COMPOUNDS AND METHODS OF USE” (Exelixis, Inc., priority 2020, published 2023)
